Values quoted from earlier work, collected in patent US9572781B2, “Orally disintegrating tablet compositions comprising combinations of non-opioid and opioid analgesics” (Adare Pharmaceuticals, Inc., priority 2009, dated 2017).

Drug detectable (after about 8 hours): only traces
Time to peak plasma concentrations (following oral administration): 30 to 60 min
Structure (SMILES): CC(=O)Nc1ccc(O)cc1 [acetaminophen]
